Entries after “also recorded” stand apart in the source; their conditions may differ.
How the values were obtained:
Assay type in all cases: cell-based
[1] = test system: OG2 mouse embryonic fibroblasts; experiment: Four-factor (Oct4, Sox2, Klf4, c-Myc) iPS induction, counting of Oct-GFP+ colonies by fluorescence microscope; details: four factors; for number of Oct-GFP+ colonies per well: 96-well plate
Experimental: Retrovirus were produced by transfecting plat-E cells with pMXs retroviral vectors containing the cDNAs of mouse Oct4, Sox2, Klf4 and c-Myc (purchased from Addgene) using Fugene HD (Roche) according to the manufacturer's protocol. After 48 hours, virus-containing supernatants were collected and filtered. The filtered supernatant was supplemented with 8 mg/L of polybrene, and then was used to infect mouse embryonic fibroblasts. The day when adding virus containing supernatants is counted as “day 0”. The fibroblasts infected with the virus were cultured in the mES medium, and iPS colonies were picked from day 14 to the day 18 after infection (four-factor infection experiment) or from day 20 to day 24 after infection (three-factor infection experiment), based on the expression of Oct-GFP and the typical morphology of stem cells.
(§1) The main method for calculating the reprogramming efficiency is the counting of the Oct-GFP^+ cells, including: 1. Using flow cytometry to determine the percentage of Oct-GFP^+ cells in the cell culture, which were infected with four factors for 10 to 12 days or with three factors for 14 to 16 days, or 2. directly counting the Oct-GFP^+ colonies in the wells by using fluorescence microscope.
a. Same volumes of the viruses carrying Oct4, Sox2, Klf4 or c-Myc were mixed and added to a total of 180,000 OG2 mouse embryonic fibroblasts in one well of a 6-well plate and cells were cultured in DMEM medium supplemented with 10% fetal bovine serum at 37° C. and 5% CO2. The day of viral infection was counted as “day 0”. On day 2, cells were trypsinized and resuspended in the mES medium, and then seeded at a density of 5,000 cells per well onto a 96-well plate pre-seeded with irradiated mouse embryonic fibroblast feeders. The mES medium supplemented with different concentrations of LiCl (0.6 mM, 1.2 mM, 2.5 mM, 5 mM, 10 mM, 20 mM and 40 mM) were used from day 3. On day 6, the medium was replaced with KSR medium supplemented with different concentrations of LiCl (0.6 mM, 1.2 mM, 2.5 mM, 5 mM, 10 mM, 20 mM and 40 mM). On day 8, the medium was replaced with KSR medium again.
b. Using the method described in step a, from day 8, Oct-GFP^+ colonies were observed and counted under an inverted fluorescence microscope every day, and pictures were also taken with a fluorescence microscope. FIG. 2A was representative images of wells in the 96-well plate on day 10, in which there were more GFP^+ colonies in 10 mM LiCl treated well than in untreated well. […] On day 8, GFP^+ colony could barely be observed in control wells, while approximately 10 GFP^+ colonies could be observed in 10 mM LiCl treated wells. On day 10, approximately 20 GFP^+ colonies could be observed in 10 mM LiCl treated wells, with induction efficiency 5 to 6 times of that of control wells'.

[2] = test system: OG2 mouse embryonic fibroblasts; experiment: Four-factor iPS induction, percentage of Oct-GFP+ cells by flow cytometry; details: four factors, 10 mM LiCl, day 12, three independent experiments
Experimental: (§2) Retrovirus were produced by transfecting plat-E cells with pMXs retroviral vectors containing the cDNAs of mouse Oct4, Sox2, Klf4 and c-Myc (purchased from Addgene) using Fugene HD (Roche) according to the manufacturer's protocol. After 48 hours, virus-containing supernatants were collected and filtered. The filtered supernatant was supplemented with 8 mg/L of polybrene, and then was used to infect mouse embryonic fibroblasts. The day when adding virus containing supernatants is counted as “day 0”. […]
as §1
(§3) a. […] The day of viral infection was counted as “day 0”. […]
c. Using the method described in step a, on day 12, cells were trypsinized and percentage of Oct-GFP^+ cells was determined by using flow cytometry. […]

[3] = test system: OG2 mouse embryonic fibroblasts; experiment: Three-factor (Oct4, Sox2, Klf4) iPS induction, counting of Oct-GFP+ colonies by fluorescence microscope; details: three factors, day 14
Experimental: as §2, §1, §3
b. Using the method described in step a, from day 12, Oct-GFP^+ colonies were observed and counted under an inverted fluorescence microscope every day, and pictures were also taken with a fluorescence microscope.

[4] = test system: OG2 mouse embryonic fibroblasts; experiment: Three-factor iPS induction, percentage of Oct-GFP+ cells by flow cytometry; details: three factors, 10 mM LiCl, day 16
Experimental: as §2, §1, §3
c. Using the method described in step a, on day 16, cells were trypsinized and the percentage of Oct-GFP^+ cells was determined by using flow cytometry.

[Cl-].[Li+] [LiCl, lithium chloride]
number of Oct-GFP+ colonies per well ([1]; 10 mM LiCl, day 8 after infection): approximately 10
induction efficiency relative to control wells (colony count) ([1]; 10 mM LiCl, day 10): 5 to 6 times
number of Oct-GFP+ colonies per well ([1]; 10 mM LiCl, day 10 after infection): approximately 20
most effective dose of LiCl (number of positive colonies) ([1]; tested 0.6-40 mM): 10 mM
induction efficiency increase versus wells without treatment (flow cytometry) [2]: 5 to 6 times
induction efficiency of iPS cells versus control groups (colony count) ([3]; 5 mM or 10 mM LiCl): enhanced; also recorded: significantly improved
induction efficiency increase versus control groups (colony count) ([3]; 10 mM LiCl): approximately 7 times
increase of percentage of Oct-GFP+ cells versus control groups [4]: approximately 60 times
percentage of Oct-GFP+ cells [4]: 14.5%

From patent publication US20130295579A1, “METHOD FOR PREPARING INDUCED PLURIPOTENT STEM CELLS AND MEDIUM USED FOR PREPARING INDUCED PLURIPOTENT STEM CELLS” (SHANGHAI INSTITUTE OF MATERIA MEDICA, CHINESE ACADEMY OF …, priority 2010, published 2013)
